{"source": "paper PMC4738305", "about": "“Metabolism and Disposition of Aditoprim in Swine, Broilers, Carp and Rats” (Scientific Reports, 2016)", "experiment": "Tissue distribution and elimination of total radioactivity (total residues) after oral ^3H-ADP for 7 d", "assay_type": "in vivo, carp", "design": "Ke of total residues: unit not given here", "experimental": "(0.1 Ci/g) through oral gavage for 7 consecutive days. All the animals were housed on the basis of their group in the cages or aquaria throughout the whole study period. A group of animals was slaughtered through exsanguination under diethyl ether inhalation of anesthesia in the period of 6 h, 1, 3, 7, 14, and 21 d after the administration. The blood samples were immediately collected into the heparinized tubes and was centrifuged at 1920 × g at 4 °C for 10 min to obtain the plasma. The tissues from the heart, liver, spleen, lung, kidney, craw (broilers), stomach, intestine, fat, skin, muscle, thymus, pancreas, bile, bladder, hair (scale for carp), genital gland, adrenal glands, swim bladder (carp), brain, lymph, and bursa (broilers) were carefully excised and collected. The tissues were thoroughly rinsed with the deionized water to remove the residuary blood, blotted to dryness, and finally to perform the homogenization. In order to avoid cross-contamination the dissecting instruments were washed during the tissue procurements. The blank tissues were collected in order to provide control matrices. The total radioactivity levels in each sample were determined through LSC. The samples extracted from the plasma, bile, and tissues of the liver, kidney, muscle, and fat/skin were analyzed through LC/MS-IT-TOF and v. ARC radiometric detection for metabolite profiling.\nMeasurements of the total radioactivity in each sample were conducted by Packard Tri-Carb 2900 TR liquid scintillation counter (PerkinElmer Life and Analytical Sciences). The detection time was 10 min for two cycles. The scintillation counter data were automatically corrected for counting efficiency by instrument-stored quench curve which was drawn with a series of sealed quenched […] standards. The actual radioactivity of each sample was calculated by subtracting the background value form the mean radioactivity in two blank samples. All the samples were analyzed in duplicate if the sample size allowed this. If the results were differed by more than 10% from the mean value, the samples were reanalyzed. The samples with LSC counts less than 2-fold of the level of the running background were considered to contain insufficient radioactivity for reliable quantification.\nAliquots of liquid samples (urine, plasma, bile and raised water, 200 μL) were mixed with 10 mL of Ultima Gold^TM scintillation fluid for the direct analysis by LSC. Aliquots of solid samples (feces and tissues, 200 mg) were digested overnight with 2 mL tissue solubilizer at 50 °C in a shaking water bath, followed by adding 200 μL of 0.1 mol/L EDTA-Na and 200 μL of 30% H2O2, and was bathed at 50 °C for 2 h to bleach. The obtained transparent liquid were mixed with 10 mL of scintillation fluid and finally were counted by LSC. The digestion efficiency was determined by using the blank samples spiked with ^3 H standard for digestion, and the measured radioactivity content in the digested samples were adjusted by using the digestion efficiency values.\nThe concentrations of ADP and/or its metabolites were analyzed by using the following equation: C = L/(2.22 × 10^9 × RM), where C is the concentration of ADP or/and its metabolites (mg/kg), L is the LSC count (dpm), R is the specific activity of the administered dose (0.1 Ci/g), and M is the weight or volume of samples (kg or L). The results are expressed as mean ± SD. The elimination kinetics of terminal phase for ADP and its metabolites were conducted by using the WinNonlin linear regression program (Pharsight corporation, Statistical consultants, Inc., Kentucky, USA).", "note": "“And” between values parts separate entries of the source, which are not always exact repeats. Equal entries are not always repeated.", "data": [{"compound": "[3H]c1c(Cc2cnc(N)nc2N)cc(OC)c(N(C)C)c1OC", "note": "[^3H-ADP]", "values": [{"measurement": "Ke of total residues", "setting": "carp Bile", "value": 0.38}, {"measurement": "Concentrations of total residues", "setting": "carp Bile, 0.25 d after 5 mg/kg b. w. for 7 days", "value": "334.6 ± 69.0 mg/kg and 334.60 ± 69.02 mg/kg"}, {"measurement": "Concentrations of total residues", "setting": "carp Bile, 1 d after 5 mg/kg b. w. for 7 days", "value": "89.59 ± 3.87", "unit": "mg/kg"}, {"measurement": "Concentrations of total residues", "setting": "carp Bile, 3 d after 5 mg/kg b. w. for 7 days", "value": "24.33 ± 1.91", "unit": "mg/kg"}, {"measurement": "Concentrations of total residues", "setting": "carp Bile, 7 d after 5 mg/kg b. w. for 7 days", "value": "1.34 ± 0.29", "unit": "mg/kg"}, {"measurement": "Concentrations of total residues", "setting": "carp Bile, 14 d after 5 mg/kg b. w. for 7 days", "value": "0.13 ± 0.05", "unit": "mg/kg"}, {"measurement": "Concentrations of total residues", "setting": "carp Bile, 21 d after 5 mg/kg b. w. for 7 days", "value": "0.01 ± 0.00", "unit": "mg/kg"}, {"measurement": "Ke of total residues", "setting": "carp Blood", "value": 0.20}, {"measurement": "Concentrations of total residues", "setting": "carp Blood, 0.25 d after 5 mg/kg b. w. for 7 days", "value": "1.73 ± 0.18", "unit": "mg/kg"}, {"measurement": "Concentrations of total residues", "setting": "carp Blood, 1 d after 5 mg/kg b. w. for 7 days", "value": "1.06 ± 0.10", "unit": "mg/kg"}, {"measurement": "Concentrations of total residues", "setting": "carp Blood, 3 d after 5 mg/kg b. w. for 7 days", "value": "0.40 ± 0.08", "unit": "mg/kg"}, {"measurement": "Concentrations of total residues", "setting": "carp Blood, 7 d after 5 mg/kg b. w. for 7 days", "value": "0.19 ± 0.02", "unit": "mg/kg"}, {"measurement": "Concentrations of total residues", "setting": "carp Blood, 14 d after 5 mg/kg b. w. for 7 days", "value": "0.05 ± 0.01", "unit": "mg/kg"}, {"measurement": "Ke of total residues", "setting": "carp Branchia", "value": 0.23}, {"measurement": "Concentrations of total residues", "setting": "carp Branchia, 0.25 d after 5 mg/kg b. w. for 7 days", "value": "12.73 ± 1.93", "unit": "mg/kg"}, {"measurement": "Concentrations of total residues", "setting": "carp Branchia, 1 d after 5 mg/kg b. w. for 7 days", "value": "5.46 ± 0.84", "unit": "mg/kg"}, {"measurement": "Concentrations of total residues", "setting": "carp Branchia, 3 d after 5 mg/kg b. w. for 7 days", "value": "1.66 ± 0.08", "unit": "mg/kg"}, {"measurement": "Concentrations of total residues", "setting": "carp Branchia, 7 d after 5 mg/kg b. w. for 7 days", "value": "0.22 ± 0.04", "unit": "mg/kg"}, {"measurement": "Concentrations of total residues", "setting": "carp Branchia, 14 d after 5 mg/kg b. w. for 7 days", "value": "0.05 ± 0.00", "unit": "mg/kg"}, {"measurement": "Concentrations of total residues", "setting": "carp Branchia, 21 d after 5 mg/kg b. w. for 7 days", "value": "0.01 ± 0.00", "unit": "mg/kg"}, {"measurement": "Ke of total residues", "setting": "carp Colla piscis", "value": 0.24}, {"measurement": "Concentrations of total residues", "setting": "carp Colla piscis, 0.25 d after 5 mg/kg b. w. for 7 days", "value": "2.78 ± 0.76", "unit": "mg/kg"}, {"measurement": "Concentrations of total residues", "setting": "carp Colla piscis, 1 d after 5 mg/kg b. w. for 7 days", "value": "1.50 ± 0.22", "unit": "mg/kg"}, {"measurement": "Concentrations of total residues", "setting": "carp Colla piscis, 3 d after 5 mg/kg b. w. for 7 days", "value": "0.41 ± 0.04", "unit": "mg/kg"}, {"measurement": "Concentrations of total residues", "setting": "carp Colla piscis, 7 d after 5 mg/kg b. w. for 7 days", "value": "0.10 ± 0.02", "unit": "mg/kg"}, {"measurement": "Concentrations of total residues", "setting": "carp Colla piscis, 14 d after 5 mg/kg b. w. for 7 days", "value": "0.03 ± 0.01", "unit": "mg/kg"}, {"measurement": "Ke of total residues", "setting": "carp Heart", "value": 0.30}, {"measurement": "Concentrations of total residues", "setting": "carp Heart, 0.25 d after 5 mg/kg b. w. for 7 days", "value": "5.37 ± 0.50", "unit": "mg/kg"}, {"measurement": "Concentrations of total residues", "setting": "carp Heart, 1 d after 5 mg/kg b. w. for 7 days", "value": "2.58 ± 0.57", "unit": "mg/kg"}, {"measurement": "Concentrations of total residues", "setting": "carp Heart, 3 d after 5 mg/kg b. w. for 7 days", "value": "1.11 ± 0.08", "unit": "mg/kg"}, {"measurement": "Concentrations of total residues", "setting": "carp Heart, 7 d after 5 mg/kg b. w. for 7 days", "value": "0.34 ± 0.05", "unit": "mg/kg"}, {"measurement": "Concentrations of total residues", "setting": "carp Heart, 14 d after 5 mg/kg b. w. for 7 days", "value": "0.14 ± 0.02", "unit": "mg/kg"}, {"measurement": "Concentrations of total residues", "setting": "carp Heart, 21 d after 5 mg/kg b. w. for 7 days", "value": "0.01 ± 0.00", "unit": "mg/kg"}, {"measurement": "Ke of total residues", "setting": "carp Intestine", "value": 0.21}, {"measurement": "Concentrations of total residues", "setting": "carp Intestine, 1 d after 5 mg/kg b. w. for 7 days", "value": "5.35 ± 0.51", "unit": "mg/kg"}, {"measurement": "Concentrations of total residues", "setting": "carp Intestine, 3 d after 5 mg/kg b. w. for 7 days", "value": "1.85 ± 0.25", "unit": "mg/kg"}, {"measurement": "Concentrations of total residues", "setting": "carp Intestine, 7 d after 5 mg/kg b. w. for 7 days", "value": "0.42 ± 0.09", "unit": "mg/kg"}, {"measurement": "Concentrations of total residues", "setting": "carp Intestine, 14 d after 5 mg/kg b. w. for 7 days", "value": "0.16 ± 0.06", "unit": "mg/kg"}, {"measurement": "Ke of total residues", "setting": "carp Kidney", "value": 0.19}, {"measurement": "Concentrations of total residues", "setting": "carp Kidney, 0.25 d after 5 mg/kg b. w. for 7 days", "value": "47.64 ± 9.81", "unit": "mg/kg"}, {"measurement": "Concentrations of total residues", "setting": "carp Kidney, 1 d after 5 mg/kg b. w. for 7 days", "value": "8.30 ± 1.02", "unit": "mg/kg"}, {"measurement": "Concentrations of total residues", "setting": "carp Kidney, 3 d after 5 mg/kg b. w. for 7 days", "value": "3.83 ± 0.39", "unit": "mg/kg"}, {"measurement": "Concentrations of total residues", "setting": "carp Kidney, 7 d after 5 mg/kg b. w. for 7 days", "value": "1.57 ± 0.11", "unit": "mg/kg"}, {"measurement": "Concentrations of total residues", "setting": "carp Kidney, 14 d after 5 mg/kg b. w. for 7 days", "value": "0.72 ± 0.10", "unit": "mg/kg"}, {"measurement": "Concentrations of total residues", "setting": "carp Kidney, 21 d after 5 mg/kg b. w. for 7 days", "value": "0.10 ± 0.02", "unit": "mg/kg"}, {"measurement": "Ke of total residues", "setting": "carp Liver", "value": 0.10}, {"measurement": "Concentrations of total residues", "setting": "carp Liver, 0.25 d after 5 mg/kg b. w. for 7 days", "value": "15.59 ± 1.52", "unit": "mg/kg"}, {"measurement": "Concentrations of total residues", "setting": "carp Liver, 3 d after 5 mg/kg b. w. for 7 days", "value": "2.53 ± 0.21", "unit": "mg/kg"}, {"measurement": "Concentrations of total residues", "setting": "carp Liver, 7 d after 5 mg/kg b. w. for 7 days", "value": "0.40 ± 0.08", "unit": "mg/kg"}, {"measurement": "Concentrations of total residues", "setting": "carp Liver, 14 d after 5 mg/kg b. w. for 7 days", "value": "0.30 ± 0.05", "unit": "mg/kg"}, {"measurement": "Concentrations of total residues", "setting": "carp Liver, 21 d after 5 mg/kg b. w. for 7 days", "value": "0.09 ± 0.01", "unit": "mg/kg"}]}]}
